The values below come from ChEMBL document CHEMBL2311359, “Antiproliferative and apoptotic effects of the oxidative dimerization product of methyl caffeate on human breast cancer cells” (Bioorg Med Chem Lett, 2013).

The source made the active and inactive calls. The rule behind the calls is not given here.

Series [1] has as its system MCF7. The series can be described thus: Growth inhibition of human MCF7 cells at 10 uM after 48 hrs. The series is classed as functional.
Series [2] in a line: Drug degradation in culture medium assessed as decarboxylation. The series is classed as physicochemical.
A short description of series [3]: Drug degradation in culture medium assessed as dehydration. The series is classed as physicochemical.
Series [4] relates to MDA-MB-231. The series can be described thus: Induction of cell cycle arrest in human MDA-MB-231 cells assessed as subG0 phase cells at 5 uM after 48 hrs by propidium iodide-staining method in absence of fetal calf serum relative to control. The series is classed as functional.
The subject of series [5] is MDA-MB-231. In words: Induction of cell cycle arrest in human MDA-MB-231 cells assessed as subG0 phase cells at 5 uM after 48 hrs by propidium iodide-staining method in presence of fetal calf serum relative to control. The series is classed as functional.
The subject of series [6] is MCF7. In words: Induction of cell cycle arrest in human MCF7 cells assessed as subG0 phase cells at 5 uM after 48 hrs by propidium iodide-staining method in absence of fetal calf serum relative to control. The series is classed as functional.
Series [7] has as its system MCF7. The series can be described thus: Induction of cell cycle arrest in human MCF7 cells assessed as subG0 phase cells at 5 uM after 48 hrs by propidium iodide-staining method in presence of fetal calf serum relative to control. The series is classed as functional.
For series [8], the system named is MDA-MB-231. The series can be described thus: Induction of cell cycle arrest in human MDA-MB-231 cells assessed as decrease in G2/M phase cells at 5 uM after 48 hrs by flow cytometric analysis relative to control. The series is classed as functional, cell-based.
In series [9] the test system is MDA-MB-231. In words: Induction of cell cycle arrest in human MDA-MB-231 cells assessed as decrease in G0/G1 phase cells at 5 uM after 48 hrs by flow cytometric analysis relative to control. The series is classed as functional, cell-based.
For series [10], the system named is MDA-MB-231. The series can be described thus: Induction of cell cycle arrest in human MDA-MB-231 cells assessed as S phase cells at 5 uM after 48 hrs by flow cytometric analysis (reference value: 40.4%). The series is classed as functional.
For series [11], the system named is MCF7. In words: Induction of cell cycle arrest in human MCF7 cells assessed as S/G2 phase cells at 5 uM after 48 hrs by flow cytometric analysis (reference value: 17.8%). The series is classed as functional.
For series [12], the system named is MCF7. In words: Induction of cell cycle arrest in human MCF7 cells assessed as S phase cells at 5 uM after 48 hrs by flow cytometric analysis (reference value: 46.6%). The series is classed as functional. On the technique in general: In flow cytometry, cells or beads pass a laser one at a time.
For series [13], the system named is MCF7. The series can be described thus: Induction of cell cycle arrest in human MCF7 cells assessed as G0/G1 phase cells at 5 uM after 48 hrs by flow cytometric analysis (reference value: 35.6%). The series is classed as functional.
The subject of series [14] is MDA-MB-231. The series can be described thus: Induction of apoptosis in human MDA-MB-231 cells assessed as apoptotic bubbling at 1 to 10 uM after 48 hrs by Hoechst-staining method in absence of fetal calf serum. The series is classed as functional, cell-based.
For series [15], the system named is MDA-MB-231. The series can be described thus: Induction of apoptosis in human MDA-MB-231 cells assessed as pyknosis at 1 to 10 uM after 48 hrs by Hoechst-staining method in absence of fetal calf serum. The series is classed as functional, cell-based.
For series [16], the system named is MCF7. The series can be described thus: Induction of apoptosis in human MCF7 cells assessed as apoptotic bubbling at 1 to 10 uM after 48 hrs by Hoechst-staining method in absence of fetal calf serum. The series is classed as functional, cell-based.
The subject of series [17] is MCF7. The series can be described thus: Induction of apoptosis in human MCF7 cells assessed as pyknosis at 1 to 10 uM after 48 hrs by Hoechst-staining method in absence of fetal calf serum. The series is classed as functional, cell-based.
The subject of series [18] is MDA-MB-231. The series can be described thus: Induction of apoptosis in human MDA-MB-231 cells assessed as apoptotic bubbling at 1 to 10 uM after 48 hrs by Hoechst-staining method in presence of fetal calf serum. The series is classed as functional, cell-based.
The test system of series [19] is MDA-MB-231. The series can be described thus: Induction of apoptosis in human MDA-MB-231 cells assessed as pyknosis at 1 to 10 uM after 48 hrs by Hoechst-staining method in presence of fetal calf serum. The series is classed as functional, cell-based.
The test system of series [20] is MCF7. In words: Induction of apoptosis in human MCF7 cells assessed as apoptotic bubbling at 1 to 10 uM after 48 hrs by Hoechst-staining method in presence of fetal calf serum. The series is classed as functional, cell-based.
The test system of series [21] is MCF7. In words: Induction of apoptosis in human MCF7 cells assessed as pyknosis at 1 to 10 uM after 48 hrs by Hoechst-staining method in presence of fetal calf serum. The series is classed as functional, cell-based.
Series [22] deals with MDA-MB-231. In words: Induction of apoptosis in human MDA-MB-231 cells after 48 hrs by Hoechst-staining method in absence of fetal calf serum. The series is classed as functional, cell-based.
Series [23] concerns MCF7. In words: Induction of apoptosis in human MCF7 cells after 48 hrs by Hoechst-staining method in absence of fetal calf serum. The series is classed as functional, cell-based.
Series [24] has as its system MDA-MB-231. The series can be described thus: Induction of apoptosis in human MDA-MB-231 cells after 48 hrs by Hoechst-staining method in presence of fetal calf serum. The series is classed as functional, cell-based.
The test system of series [25] is MDA-MB-231. In words: Induction of apoptosis in human MDA-MB-231 cells at 10 uM after 48 hrs by Hoechst-staining method in presence of fetal calf serum. The series is classed as functional.
The subject of series [26] is MCF7. The series can be described thus: Induction of apoptosis in human MCF7 cells after 48 hrs by Hoechst-staining method in presence of fetal calf serum. The series is classed as functional, cell-based.
Series [27] relates to MCF7. In words: Induction of apoptosis in human MCF7 cells at 10 uM after 48 hrs by Hoechst-staining method in presence of fetal calf serum. The series is classed as functional.
Series [28] deals with MDA-MB-231. In words: Growth inhibition of human MDA-MB-231 cells after 48 hrs in presence of fetal calf serum. The series is classed as functional, cell-based. As to conditions: MDA-MB-231, 48 h.
Series [29] deals with MDA-MB-231. The series can be described thus: Growth inhibition of human MDA-MB-231 cells after 48 hrs in absence of fetal calf serum. The series is classed as functional, cell-based. The note with it: MDA-MB-231, 48 h.
Series [30] deals with MCF7. The series can be described thus: Growth inhibition of human MCF7 cells after 48 hrs in absence of fetal calf serum. The series is classed as functional, cell-based. The note with it: MCF7, 48 h.
The test system of series [31] is MCF7. In words: Growth inhibition of human MCF7 cells after 48 hrs in presence of fetal calf serum. The series is classed as functional, cell-based. The note with it: MCF7, 48 h.
Series [32] deals with T47D. The series can be described thus: Antiproliferative activity against human T47D cells after 5 days by MTT assay. The series is classed as functional, cell-based. The note with it: 120 h. A general note: Formazan colour is commonly taken as a measure of viable cells.

Regarding `CCOC(=O)C1=Cc2cc(O)c(O)cc2[C@@H](c2ccc(O)cc2)[C@@H]1C(=O)O` (relative stereo), the “growth inhibition (GI)” value in series [1] was “Active”.
On the same count and under the same terms, the entry for `COC(=O)C1=Cc2cc(OC)c(O)c(C)c2[C@@H](c2cc(C)c(O)c(OC)c2)[C@@H]1C(=O)OC` is “inactive”; for `COC(=O)C1=Cc2cc(OC)c(O)cc2[C@@H](c2ccc(O)c(OC)c2)[C@@H]1C(=O)OC` it is “inactive”.
Regarding `O=C(O)C1=Cc2cc(O)c(O)cc2[C@@H](c2ccc(O)cc2)[C@@H]1C(=O)O` (relative stereo), the Stability result in [2] is reported as “Unstable”. Further, the “growth inhibition (GI)” value in series [1] is “Active”.
Regarding `COC(=O)C1C(O)c2cc(OC)c(O)c(OC)c2[C@@H](c2cc(OC)c(O)c(OC)c2)[C@@H]1C(=O)OC` (stereo partly drawn), in [3], the Stability result is given as “Unstable”. For the same compound, the “growth inhibition (GI)” value in series [1] is “Active”.
Turning to `COC(=O)C1=Cc2cc(O)c(O)cc2[C@@H](c2ccc(O)c(O)c2)[C@@H]1C(=O)OC`, the Activity is reported as 20% in [4]; 20% in series [5]; 20% in series [6]; 20% in series [7]; 56.1% in [10]; 17% in series [11]. In addition, the Activity was 34.7% in series [12]; 29.4% in series [13]; “Dose-dependent effect” in series [22]; “Dose-dependent effect” in series [23]; “Dose-dependent effect” in series [24]; 25% in [25]. Moreover, the Activity result in series [26] is “Dose-dependent effect”; in series [27], 25%. Besides, the result in series [8], in [9], in series [14], in [15], in [16] and in series [17] was Active. In addition, the result in series [18], in series [19], in [20] and in series [21] was Active. Also, the IC50 was 5 µM in series [28], 5 µM in series [29], 1 µM in series [30] and 1 µM in series [31]. Also, the inhibition of growth at 10 µM in series [1] (MCF7, 48 h, read-out: GI) is 82%.
In [32], `O=C(O)/C=C/c1ccc(O)c(O)c1` [CAFFEIC ACID] yielded a half-maximal inhibitory concentration (IC50) of 0.002 µM.
In the case of `CCOC(=O)C1=Cc2cc(O)c(O)cc2[C@@H](c2ccc(O)cc2)[C@@H]1C(=O)OCC` (relative stereo), in [1], the “growth inhibition (GI)” value is “Active”.

In general, IC50 refers to the concentration needed to halve the response being measured.
